Columns and labels:
GA RS-specific T cells = assay: In vitro potency test: IL-2 secretion by GA RS-specific LN cells, ELISA, % potency relative to GA RS; assay type: cell-based, female (SJLXBALB/C)F1 mice; conditions: for Response of GA RS-specific T cells (IL-2 secretion), in words: primary culture of LN cells from mice immunized with 250 μg GA RS in CFA; for % Potency: specificity of GA RS-specific LN cells, antigens incubated overnight
Protocol: Mice were immunized with 250 μg GA RS in CFA. GA RS was produced as described in U.S. Pat. No. 5,800,808 or PCT International Publication No. WO 00/05250. The GA RS was chosen based on the chemical and biological properties being in the midrange of Copaxone® as described above. After 9-11 days, a primary culture of LN cells was prepared, and the cells were incubated with various concentrations of GA RS and with test samples. Following 18-21 hours of incubation at 37° C. in a humidified CO2 incubator, the culture media were collected and the level of IL-2 was measured by ELISA. The T-cell response to each DS batch were tested at two concentrations (within the linear range), and the % potency of the DS batch was calculated relative to that of the GA RS batch.
The GA RS emulsion was transferred into an insulin syringe. Then, 100 μl of the emulsion (250 μg GA per mouse) were injected into four footpads of each naive mouse (about 25 μl into each footpad). The immunized mice were used for the in vitro test 9-11 days following immunization.
The UV lamp was turned on 20 minutes before commencing work in the laminar hood and turned off when work began. Prior to placing any reagents under the hood, the working surface was cleaned with a 70% ethanol solution. Enriched DCCM1 medium was prepared. The enriched DCCM1 and the RPMI medium were pre-warmed at 37° C. prior to use. The mice were sacrificed by cervical dislocation. Each mouse was placed on its back and fastened to a support platform. The abdomen was sprayed with 70% alcohol and a middle incision was made (a 2 cm-long incision was usually sufficient). The skin was intersected towards the hind legs and LN was located from the hind and forelegs. The LN was transferred into a sterile petri dish containing about 5 ml sterile RPMI medium and the LN cells were teased out by a sterile syringe plunger. The sterile syringe was used to collect the cells' suspension from the petri dish (the collection of tissue debris was avoided by using sterile needles). The cells' suspension were transferred into a 50 ml sterile tube.
The cells were centrifuged at 200×g for 10 minutes at room temperature. The cells were re-suspended to a density of 1×10^7 cells/ml with enriched DCCM1.
The in vitro bioassay was performed in a 24-well, flat-bottomed tissue culture test plate at a final volume of 1 ml.
About 10-20 mg of, GA DS from the batch to be tested was weighed accurately and dissolved with ddH2O to 1.2 mg/ml. The OD minus blank of the solution was measured at 275 nm. The OD of the sample was adjusted to approx. 1.03 with ddH2O to obtain a stock solution of 1 mg/ml of GA. The stock solution of 100 μg/ml was prepared with enriched DCCM1 and filtered through a 0.2μ cellulose acetate filter. The stock solution was diluted to 10 and 20 μg/ml as described in Table 2 for the RS batch.
0.5 ml of each GA RS dilution, thus the final concentrations of GA RS in the wells were 25, 15, 10, 5, 2.5 and 1 μg/ml.
0.5 ml of each sample dilution, thus the final concentrations of the test sample in the well were 5 and 10 μg/ml.
The density of the cells was changed depending upon their response to GA. The cultures were kept at 37° C. in a humidified 5% CO2 incubator for 18-21 hrs. The plate was centrifuged at 200×g for 10 minutes at room temperature. The supernatants were collected into cryotubes. The supernatants were divided into working aliquots to avoid repeated freezing/thawing of the samples. The supernatants were stored at −20° C. for up to one week. The hood was cleaned with 70% ethanol solution and dried with Kim wipes. The gloves were removed and the hands were immediately washed with disinfectant.
All samples were tested in triplicate. […]

EAE = conditions: 250 μg/mouse of GA in CFA; this mouse strain
Protocol: The control group in this experiment was injected with CFA alone. Ten days following immunization, LN cells were removed from the both groups of mice.

[1] = test system: experimental autoimmune encephalomyelitis (EAE); conditions: various animal species (Lando et al., 1979; Aharoni, 1993); cited from earlier work
[2] = test system: exacerbating-remitting multiple sclerosis; conditions: daily subcutaneous injections (Johnson, 1987); cited from earlier work

OC[C@@H](O)[C@@H](O)[C@H](O)[C@H](O)CO [mannitol]
Response of GA RS-specific T cells (IL-2 secretion), in words (GA RS-specific T cells): did not affect or interfere

L-glutamic acid polymer with L-alanine, L-lysine and L-tyrosine, acetate (salt) [GA]
blocking of EAE (EAE): at least 80%
suppression of EAE [1]: suppress
progression of disability [2]: slow progression of disability
relapse rate [2]: reduce the relapse rate

MBP pp.87-99: the MBP immunodominant peptide pp. 87-99 (an encephalitogenic peptide) (SRPHLIRLFSRDA; UniProt P02686 87-99, looked up, fragment)
Response of GA RS-specific T cells (IL-2 secretion), in words (GA RS-specific T cells): did not respond
% Potency (GA RS-specific T cells): 0%

Lysozyme: a non-relevant basic protein
Response of GA RS-specific T cells (IL-2 secretion), in words (GA RS-specific T cells): not recognized
% Potency (GA RS-specific T cells): 0%

B1: Human MBP: human MBP (myelin basic protein) (protein, UniProt P02686 1-304, looked up)
Myelin basic protein: MGNHAGKRELNAEKASTNSETNRGESEKKRNLGELSRTTSEDNEVFGEADANQNNGTSSQDTAVTDSKRTADPKNAWQDAHPADPGSRPHLIRLFSRDAPGREDNTFKDRPSESDELQTIQEDSAATSESLDVMASQKRPSQRHGSKYLATASTMDHARHGFLPRHRDTGILDSIGRFFGGDRGAPKRGSGKDSHHPARTAHYGSLPQKSHGRTQDENPVVHFFKNIVTPRTPPPSQGKGRGLSLSRFSWGAEGQRPGFGYGGRASDYKSAHKGFKGVDAQGTLSKIFKLGGRDSRSGSPMARR
Response of GA RS-specific T cells (IL-2 secretion), in words (GA RS-specific T cells): did not respond
% Potency (GA RS-specific T cells): 0%

Reference: US7429374B2, “Process for the measurement of the potency of glatiramer acetate” (Teva Pharmaceutical Industries, Ltd., priority 2001, dated 2008)
